Source: US20230255903A1, “URINARY SYMPTOM THERAPEUTIC AGENT” (TAIHO PHARMACEUTICAL CO., LTD., priority 2020, published 2023)
Values joined by “and” are separate entries in the source; they are usually repeats but may differ in a detail not shown here. Equal values may be shown once.

Columns and labels:
[1] = tested on: patients having lower urinary tract disorders; experiment: Placebo-controlled double-blind comparative study: adverse events and adverse drug reactions; format: in vivo, human
Protocol: (§1) Patients having detrusor underactivity (DU) and at least one voiding symptom associated with DU, such as abdominal straining to void, slow urinary stream, intermittent stream, residual urine, and reduced voiding efficiency, were used as subjects. Using such subjects, a placebo-controlled double-blind comparative study was performed to examine the effectiveness and safety of Compound 1 (this test was performed using patients also having overactive bladder as subjects). Under double-blind conditions (in which neither the doctor who prescribed the drug nor the patients knew which drug was administered to each patient), 200 mg of Compound 1 or a placebo was orally administered twice a day after a meal for 12 weeks to evaluate the effectiveness and safety of Compound 1.
To study the safety of Compound 1 in patients having lower urinary tract disorders, adverse events (any unfavorable medical event that occurred in patients who participated in this study; whether or not there is a causal relationship with the active ingredient) and adverse drug reactions (adverse events that are determined to “have a reasonable possibility” of a causal relationship with the drug) were measured.

[2] = tested on: patients having detrusor underactivity (DU); experiment: Placebo-controlled double-blind comparative study: bladder voiding efficiency (BVE); format: in vivo, human; conditions: for BVE, Value at Week 12, Mean(S.D.) / BVE, Change from Baseline at Week 12, Mean(S.D.): 200 mg orally twice a day for 12 weeks, FAS; for BVE change, Mean Difference = Compound 1-Placebo: Week 12; for Effect on voiding efficiency (in words): 12 weeks
Protocol: as §1
To evaluate the effectiveness, BVE (bladder voiding efficiency) was evaluated. BVE (%) was calculated by the following formula:
Voided volume/(Voided volume+Residual urine volume)×100.
The voided volume refers to the amount of urine per urination. The residual urine volume refers to the amount of urine that resides in the bladder as measured by transabdominal ultrasonography after completion of urination. The difference between the baseline (before administration) and the measurement value after 12 weeks of the administration was evaluated by using a paired t-test, whereas the difference in amount of BVE variation between the Compound 1 group and the placebo group was evaluated by using Student's t-test.

[3] = 200 mg orally twice a day for 12 weeks, All Treated Patients, N=52
[4] = patients with a residual urine volume of 50 mL or more, N=29
[5] = patients with a residual urine volume of 100 mL or more, N=19
[6] = patients with a residual urine volume of less than 50 mL, N=19

CC1=C(CCCCCCCCCCCCCCCO)C(C)(C)CCC1=O [Compound 1, 3-(15-hydroxypentadecyl)-2,4,4-trimethyl-2-cyclohexen-1-one]
Adverse Drug Reactions, N (patients) [1, 3]: 0 | Adverse Drug Reactions, incidence [1, 3]: 0.0% | Adverse Events, N (patients) [1, 3]: 24 | Adverse Events, incidence [1, 3]: 46.2% | Safety and tolerability (in words) ([1]; oral administration of 200 mg twice a day for 12 weeks): well tolerated | BVE, Value at Week 12, Mean(S.D.) ([2]; entire group of patients having lower urinary tract disorders, N=48): 66.79 (27.04) % | BVE, Change from Baseline at Week 12, Mean(S.D.) ([2]; entire group of patients, N=48): 10.91% and 10.91 (26.48) % | BVE change, Mean Difference = Compound 1-Placebo ([2]; entire group of patients, Student's t-test p=0.178): 8.49% | Effect on voiding efficiency (in words) ([2]; patients with a residual urine volume of 50 mL or more or of 100 mL or more): significantly increased the voiding efficiency | BVE, Change from Baseline at Week 12, Mean(S.D.) [2, 4]: 18.41% and 18.41 (24.39) % | BVE, Value at Week 12, Mean(S.D.) [2, 4]: 61.66 (30.45) % | BVE change, Mean Difference = Compound 1-Placebo ([2]; patients with a residual urine volume of 50 mL or more, Student's t-test p=0.031): 15.53% | BVE, Change from Baseline at Week 12, Mean(S.D.) [2, 5]: 23.57% and 23.57 (25.54) % | BVE, Value at Week 12, Mean(S.D.) [2, 5]: 54.71 (33.78) % | BVE change, Mean Difference = Compound 1-Placebo ([2]; patients with a residual urine volume of 100 mL or more, Student's t-test p=0.025): 21.47% | BVE, Change from Baseline at Week 12, Mean(S.D.) [2, 6]: −0.55 (25.99) % | BVE, Value at Week 12, Mean(S.D.) [2, 6]: 74.62 (18.94) % | Effect on voiding efficiency (in words) ([2]; patients with a residual urine volume of less than 50 mL): did not significantly increase the voiding efficiency | BVE change, Mean Difference = Compound 1-Placebo ([2]; patients with a residual urine volume of less than 50 mL, Student's t-test p=0.853): −2.09%
